Reference: the NIST ThermoML archive (doi:10.1016/j.jct.2014.05.020)

Assay: excess molar enthalpy (molar enthalpy of mixing); xn = mol fraction of the nth substance listed
Details: Liquid, Flow calorimetry

C1CCCCC1 [cyclohexane] + c1ccccc1
excess molar enthalpy [kcal/mol]
Details | 298.2 K | 348.2 K
100 kPa, x2 = 0.1191 | 0.0766 | –
100 kPa, x2 = 0.2332 | 0.132 | –
100 kPa, x2 = 0.2885 | 0.152 | –
100 kPa, x2 = 0.3426 | 0.167 | –
100 kPa, x2 = 0.3957 | 0.179 | –
100 kPa, x2 = 0.4478 | 0.186 | –
100 kPa, x2 = 0.4988 | 0.189 | –
100 kPa, x2 = 0.5488 | 0.188 | –
100 kPa, x2 = 0.5978 | 0.184 | –
100 kPa, x2 = 0.6459 | 0.176 | –
100 kPa, x2 = 0.6931 | 0.165 | –
100 kPa, x2 = 0.7394 | 0.15 | –
100 kPa, x2 = 0.7849 | 0.133 | –
100 kPa, x2 = 0.8295 | 0.112 | –
100 kPa, x2 = 0.9163 | 0.063 | –
5000 kPa, x2 = 0.1189 | 0.076 | 0.0637
5000 kPa, x2 = 0.1765 | 0.106 | –
5000 kPa, x2 = 0.233 | 0.132 | 0.11
5000 kPa, x2 = 0.2882 | 0.152 | –
5000 kPa, x2 = 0.3424 | 0.167 | 0.141
5000 kPa, x2 = 0.3955 | 0.178 | –
5000 kPa, x2 = 0.4475 | 0.184 | –
5000 kPa, x2 = 0.4985 | 0.188 | –
5000 kPa, x2 = 0.5485 | 0.187 | –
5000 kPa, x2 = 0.5976 | 0.182 | –
5000 kPa, x2 = 0.6457 | 0.174 | –
5000 kPa, x2 = 0.6929 | 0.166 | –
5000 kPa, x2 = 0.7392 | 0.151 | –
5000 kPa, x2 = 0.7847 | 0.133 | –
5000 kPa, x2 = 0.8293 | 0.113 | –
5000 kPa, x2 = 0.8732 | 0.0885 | –
5000 kPa, x2 = 0.9162 | 0.0614 | –
15000 kPa, x2 = 0.1188 | 0.0714 | –
15000 kPa, x2 = 0.2327 | 0.129 | –
15000 kPa, x2 = 0.2879 | 0.15 | –
15000 kPa, x2 = 0.3421 | 0.166 | –
15000 kPa, x2 = 0.3951 | 0.178 | –
15000 kPa, x2 = 0.4471 | 0.185 | –
15000 kPa, x2 = 0.4981 | 0.188 | –
15000 kPa, x2 = 0.5482 | 0.188 | –
15000 kPa, x2 = 0.5972 | 0.184 | –
15000 kPa, x2 = 0.6454 | 0.175 | –
15000 kPa, x2 = 0.6926 | 0.164 | –
15000 kPa, x2 = 0.7389 | 0.149 | –
15000 kPa, x2 = 0.7845 | 0.131 | –
15000 kPa, x2 = 0.8291 | 0.11 | –
15000 kPa, x2 = 0.9161 | 0.0587 | –
25000 kPa, x2 = 0.1187 | 0.072 | –
25000 kPa, x2 = 0.2325 | 0.129 | –
25000 kPa, x2 = 0.3418 | 0.167 | –
25000 kPa, x2 = 0.4469 | 0.185 | –
25000 kPa, x2 = 0.5479 | 0.187 | –
25000 kPa, x2 = 0.6451 | 0.175 | –
25000 kPa, x2 = 0.7388 | 0.149 | –
25000 kPa, x2 = 0.7843 | 0.132 | –
25000 kPa, x2 = 0.829 | 0.111 | –
25000 kPa, x2 = 0.916 | 0.0593 | –
